Measured values reported in patent US5081261A, “4-(1-hydroxy-2-N-substituted sulfonamido) ethyl-5-hydroxy-2(5H)-furanones and 4-(N-substituted sulfonamido)-2-ethenyl-5-hydroxy-2(5H)-furanones as anti-inflammatory agents” (Allergan, Inc., priority 1990, dated 1992).

Experiments:
[1] = prior art; cited from earlier work
[2] = target: bee venom phospholipase A2 (Apis mellifera, UniProt P00630); experiment: biochemical
[3] = tested on: phosphoinositide-specific phospholipase C; conditions: reported for manoalide, Bennett et al; cited from earlier work

Sequence of bee venom phospholipase A2 (P00630 34-167 limits assumed): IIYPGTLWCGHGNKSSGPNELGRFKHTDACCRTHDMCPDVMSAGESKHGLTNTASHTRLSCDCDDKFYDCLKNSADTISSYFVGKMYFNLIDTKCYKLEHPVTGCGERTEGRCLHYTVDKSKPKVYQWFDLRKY

## CC1=C(CC/C(C)=C/CCC(C=O)=CC=CC2=CC(=O)OC2O)C(C)(C)CCC1 (stereo not drawn) [Compound 3]
[1]
  biological properties: anti-inflammatory activity

## CCCCCCCCCCCCNS(=O)(=O)CC(OC(C)=O)C1=CC(=O)OC1O (stereo not drawn) [Compound 6, 4-[1-Acetoxy-2-(N-dodecylsulfonamido)]ethyl-5-hydroxy-2(5H)-furanone]
[2]
  IC50: 50 nM

## CC1=C(CC/C(C)=C/CCC(C=O)=CCC(O)C2=CC(=O)OC2O)C(C)(C)CCC1 (stereo not drawn) [Compound 2]
[1]
  biological properties: anti-inflammatory activity

## CC1=C(CC/C(C)=C/CCC2=CCC(C3=CC(=O)OC3O)OC2O)C(C)(C)CCC1 (stereo not drawn) [Compound 1]
[3]
  inhibition of phosphoinositide-specific phospholipase C: inhibition
[2]
  IC50: 30 nM
[1]
  biological properties: anti-inflammatory,immunosuppressive and analgesic properties

## CCCCCCCCCCCCNS(=O)(=O)/C=C/C1=CC(=O)OC1O (stereo not drawn) [Compound 4, 4-[2-(N-Dodecylsulfonamido)ethenyl]-5-hydroxy-2(5H)-furanone]
[2]
  IC50: 40 nM

## CCCCCCCCCCCCNS(=O)(=O)CC(O)C1=CC(=O)OC1O (stereo not drawn) [Compound 5, 4-[1-Hydroxy-2-(N-dodecylsulfonamido)]ethyl-5-hydroxy-2(5H)-furanone]
[2]
  IC50: 100 nM

## CCCCCCCCCCCCNS(=O)(=O)CC(OC(=O)CCCC(=O)O)C1=CC(=O)OC1O (stereo not drawn) [Compound 7, 4-[1-Gluraroyloxy-2-(N-dodecylsulfonamido)]ethyl-5-hydroxy-2(5H)-furanone]
[2]
  IC50: 50 nM
